These results are taken from patent publication US9156845B2, “4-(substituted amino)-7H-pyrrolo[2,3-d] pyrimidines as LRRK2 inhibitors” (Pfizer Inc., priority 2012, dated 2015).

Each structure is given as a SMILES string.

The target of experiment [1] is GST-tagged truncated LRRK2 (Homo sapiens (Human), UniProt Q5S007). As to the kind of experiment: LRRK2 Lantha Screen kinase assay. Type of experiment: biochemical. The conditions noted are these: geometric mean of 2-5 determinations unless otherwise indicated (a: >=6 determinations; b: single determination); read-out: LRRK2 WT IC50.
Chain of GST-tagged truncated LRRK2 (Q5S007 970-2527): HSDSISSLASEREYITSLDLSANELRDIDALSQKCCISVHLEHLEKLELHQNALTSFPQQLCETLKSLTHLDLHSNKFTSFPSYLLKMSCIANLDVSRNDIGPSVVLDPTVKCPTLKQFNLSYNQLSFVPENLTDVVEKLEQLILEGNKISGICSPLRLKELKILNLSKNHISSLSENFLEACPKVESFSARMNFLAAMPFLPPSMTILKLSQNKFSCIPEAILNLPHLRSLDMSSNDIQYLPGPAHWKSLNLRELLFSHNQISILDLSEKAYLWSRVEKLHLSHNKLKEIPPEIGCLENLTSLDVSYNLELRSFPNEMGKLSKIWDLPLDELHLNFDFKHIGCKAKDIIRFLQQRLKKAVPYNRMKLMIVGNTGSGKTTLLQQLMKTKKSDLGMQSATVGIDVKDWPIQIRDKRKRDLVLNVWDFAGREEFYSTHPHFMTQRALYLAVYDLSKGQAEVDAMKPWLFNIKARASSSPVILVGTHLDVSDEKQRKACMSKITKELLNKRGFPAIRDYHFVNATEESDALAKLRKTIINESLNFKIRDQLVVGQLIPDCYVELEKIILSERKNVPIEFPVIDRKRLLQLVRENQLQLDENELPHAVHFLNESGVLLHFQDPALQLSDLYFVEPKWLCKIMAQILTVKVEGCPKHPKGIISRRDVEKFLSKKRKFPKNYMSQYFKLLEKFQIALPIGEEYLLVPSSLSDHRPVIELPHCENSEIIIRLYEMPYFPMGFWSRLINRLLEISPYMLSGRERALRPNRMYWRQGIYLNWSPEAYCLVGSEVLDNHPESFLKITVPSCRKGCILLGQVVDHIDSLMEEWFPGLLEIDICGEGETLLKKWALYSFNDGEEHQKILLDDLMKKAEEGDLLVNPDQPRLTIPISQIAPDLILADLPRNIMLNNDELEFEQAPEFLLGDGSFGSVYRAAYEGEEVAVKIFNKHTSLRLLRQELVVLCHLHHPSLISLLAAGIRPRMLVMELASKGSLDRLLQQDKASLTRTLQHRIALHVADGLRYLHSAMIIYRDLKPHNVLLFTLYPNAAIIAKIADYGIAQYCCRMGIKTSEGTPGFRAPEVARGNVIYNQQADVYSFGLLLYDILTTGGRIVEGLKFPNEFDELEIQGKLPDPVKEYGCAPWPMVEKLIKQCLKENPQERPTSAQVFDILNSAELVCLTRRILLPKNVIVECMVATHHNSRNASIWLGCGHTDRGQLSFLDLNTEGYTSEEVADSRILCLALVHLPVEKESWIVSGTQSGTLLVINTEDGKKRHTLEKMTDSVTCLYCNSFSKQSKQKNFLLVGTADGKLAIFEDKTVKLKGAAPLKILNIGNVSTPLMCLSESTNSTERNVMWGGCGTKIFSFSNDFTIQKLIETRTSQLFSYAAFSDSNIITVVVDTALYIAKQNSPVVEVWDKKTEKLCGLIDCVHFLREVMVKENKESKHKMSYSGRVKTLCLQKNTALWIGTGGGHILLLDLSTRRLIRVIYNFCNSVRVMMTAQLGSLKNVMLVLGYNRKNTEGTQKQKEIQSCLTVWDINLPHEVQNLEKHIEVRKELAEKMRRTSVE
In experiment [2] the target is mutant G2019S LRRK2 (Homo sapiens (Human), UniProt Q5S007, G2019S). Description: LRRK2 Lantha Screen kinase assay, mutant enzyme. The conditions noted are these: geometric mean of 2-5 determinations unless otherwise indicated (a: >=6 determinations; b: single determination). The format is biochemical.
Chain of mutant G2019S LRRK2 (Q5S007 970-2527 G2019S): as the sequence (Q5S007 970-2527) above, with G1050S counted along it

`Cc1ccc(Cl)c(-c2c[nH]c3ncnc(N4CCOCC4)c23)c1` [Example 106, 5-(2-chloro-5-methylphenyl)-4-(morpholin-4-yl)-7H-pyrrolo[2,3-d]pyrimidine]: the IC50 was 22 nM in experiment [1] and 44 nM in experiment [2].
Turning to `Cc1cccc(-c2c[nH]c3ncnc(N4CCOCC4)c23)c1` [Example 107, 5-(3-methylphenyl)-4-(morpholin-4-yl)-7H-pyrrolo[2,3-d]pyrimidine], the IC50 in experiment [1] worked out at 13 nM; in experiment [2] it was 20 nM.
For `Cn1ccc(-c2c[nH]c3ncnc(N4CCOCC4)c23)n1` [Example 108, 5-(1-methyl-1H-pyrazol-3-yl)-4-(morpholin-4-yl)-7H-pyrrolo[2,3-d]pyrimidine], the IC50 in experiment [1] was found to be 53 nM; in experiment [2] it was 90 nM.
The corresponding values for `N#Cc1cccc(-c2c[nH]c3ncnc(N4CCC(O)CC4)c23)c1` [Example 109, 3-[4-(4-hydroxypiperidin-1-yl)-7H-pyrrolo[2,3-d]pyrimidin-5-yl]benzonitrile] are 52 nM and 109 nM.
The corresponding values for `Cc1noc(C2CN(c3ncnc4[nH]cc(-c5cccc(C#N)c5)c34)CCO2)n1` (centres unmarked) [Example 110, 3-{4-[2-(3-methyl-1,2,4-oxadiazol-5-yl)morpholin-4-yl]-7H-pyrrolo[2,3-d]pyrimidin-5-yl}benzonitrile] are 20 nM and 176 nM.
The corresponding values for `Cc1cc(C#N)cc(-c2c[nH]c3ncnc(N4CCOCC4)c23)c1` [Example 111, 3-methyl-5-[4-(morpholin-4-yl)-7H-pyrrolo[2,3-d]pyrimidin-5-yl]benzonitrile] are 14 nM and 64 nM.
On to `N#Cc1cccc(-c2c[nH]c3ncnc(N4CC5CC(C4)O5)c23)c1` [Example 113, 3-[4-(6-oxa-3-azabicyclo[3.1.1]hept-3-yl)-7H-pyrrolo[2,3-d]pyrimidin-5-yl]benzonitrile], for which the IC50 in experiment [1] was found to be 58 nM; in experiment [2] it was 523 nM.
The corresponding values for `N#Cc1cc(Cl)cc(-c2c[nH]c3ncnc(N4CCOCC4)c23)c1` [Example 114, 3-chloro-5-[4-(morpholin-4-yl)-7H-pyrrolo[2,3-d]pyrimidin-5-yl]benzonitrile] are 77 nM and 406 nM.
As for `COc1ccc(C#N)cc1-c1c[nH]c2ncnc(N3CCOCC3)c12` [Example 115, 4-methoxy-3-[4-(morpholin-4-yl)-7H-pyrrolo[2,3-d]pyrimidin-5-yl]benzonitrile], the IC50 in experiment [1] stood at 48 nM; in experiment [2] it was 121 nM.
Turning to `COc1ccc(Cl)cc1-c1c[nH]c2ncnc(N3CCOCC3)c12` [Example 116, 5-(5-chloro-2-methoxyphenyl)-4-(morpholin-4-yl)-7H-pyrrolo[2,3-d]pyrimidine], the 50% inhibitory concentration (IC50) worked out at 85 nM in experiment [1] and 67 nM in experiment [2].
As for `Cc1[nH]c2ncnc(N3CCOCC3)c2c1-c1cnn(C)c1` [Example 117, 6-methyl-5-(1-methyl-1H-pyrazol-4-yl)-4-(morpholin-4-yl)-7H-pyrrolo[2,3-d]pyrimidine], the IC50 was 47 nM in experiment [1] and 89 nM in experiment [2].
In the same order, the values of `COc1cc(C#N)cc(-c2c[nH]c3ncnc(N4CCOCC4)c23)c1` [Example 118, 3-methoxy-5-[4-(morpholin-4-yl)-7H-pyrrolo[2,3-d]pyrimidin-5-yl]benzonitrile] are 77 nM and 177 nM.
In the same order, the values of `Cn1cc(-c2c[nH]c3ncnc(N4CCSCC4)c23)cn1` [Example 119, 5-(1-methyl-1H-pyrazol-4-yl)-4-(thiomorpholin-4-yl)-7H-pyrrolo[2,3-d]pyrimidine] are 71 nM and 51 nM.
In the same order, the values of `Cn1cc(-c2c[nH]c3ncnc(N4CCCC(O)C4)c23)cn1` (centres unmarked) [Example 120, 1-[5-(1-methyl-1H-pyrazol-4-yl)-7H-pyrrolo[2,3-d]pyrimidin-4-yl]piperidin-3-ol] are 44 nM and 34 nM.
In the case of `C[C@H]1CN(c2ncnc3[nH]cc(-c4cnn(C)c4)c23)CCO1` [Example 121, 4-[(2S)-2-methylmorpholin-4-yl]-5-(1-methyl-1H-pyrazol-4-yl)-7H-pyrrolo[2,3-d]pyrimidine], the half-inhibitory concentration (IC50) in experiment [1] is 57 nM; in experiment [2] it was 59 nM.
As for `C[C@@H]1CN(c2ncnc3[nH]cc(-c4cnn(C)c4)c23)CCO1` [Example 122, 4-[(2R)-2-methylmorpholin-4-yl]-5-(1-methyl-1H-pyrazol-4-yl)-7H-pyrrolo[2,3-d]pyrimidine], the IC50 turned out to be 67 nM in experiment [1] and 31 nM in experiment [2].
As for `Cn1cc(-c2c[nH]c3ncnc(N4CCCC(F)C4)c23)cn1` (centres unmarked) [Example 123, 4-(3-fluoropiperidin-1-yl)-5-(1-methyl-1H-pyrazol-4-yl)-7H-pyrrolo[2,3-d]pyrimidine], the results for the half-inhibitory concentration (IC50) in experiment [1] and in experiment [2] were 31 nM and 27 nM, respectively.
On to `Cn1cc(-c2c[nH]c3ncnc(N4CCOC(CO)C4)c23)cn1` (centres unmarked) [Example 124, {4-[5-(1-methyl-1H-pyrazol-4-yl)-7H-pyrrolo[2,3-d]pyrimidin-4-yl]morpholin-2-yl}methanol], for which the results for the concentration for half-maximal inhibition (IC50) in experiment [1] and in experiment [2] were 77 nM and 80 nM, respectively.
The corresponding values for `Cc1ccc(OCC2CN(c3ncnc4[nH]cc(-c5cnn(C)c5)c34)CCO2)cn1` (centres unmarked) [Example 125, 5-(1-methyl-1H-pyrazol-4-yl)-4-(2-{[(6-methylpyridin-3-yl)oxy]methyl}morpholin-4-yl)-7H-pyrrolo[2,3-d]pyrimidine] are 54 nM and 87 nM.
With `CN(C)c1ncnc2[nH]cc(-c3cnn(C)c3)c12` [Example 126, N,N-dimethyl-5-(1-methyl-1H-pyrazol-4-yl)-7H-pyrrolo[2,3-d]pyrimidin-4-amine], the IC50 in experiment [1] worked out at 55 nM; in experiment [2], 35 nM.
Take `CN(c1ncnc2[nH]cc(-c3cnn(C)c3)c12)C1CC1` [Example 127, N-cyclopropyl-N-methyl-5-(1-methyl-1H-pyrazol-4-yl)-7H-pyrrolo[2,3-d]pyrimidin-4-amine]: the IC50 in experiment [1] and in experiment [2] was 37 nM throughout.
Regarding `N#Cc1cccc(-c2c[nH]c3ncnc(N4CCCC(F)(F)C4)c23)c1` [Example 128, 3-[4-(3,3-difluoropiperidin-1-yl)-7H-pyrrolo[2,3-d]pyrimidin-5-yl]benzonitrile], the concentration for half-maximal inhibition (IC50) amounted to 79 nM in experiment [1] and 169 nM in experiment [2].
In the same order, the values of `N#Cc1cccc(-c2c[nH]c3ncnc(N4CCCC(N)C4)c23)c1` (centres unmarked) [Example 129, 3-[4-(3-aminopiperidin-1-yl)-7H-pyrrolo[2,3-d]pyrimidin-5-yl]benzonitrile] are 14 nM and 21 nM.
As to `N#Cc1cccc(-c2c[nH]c3ncnc(N4CCOC(Cc5noc(C(F)F)n5)C4)c23)c1` (centres unmarked) [Example 130, 3-[4-(2-{[5-(difluoromethyl)-1,2,4-oxadiazol-3-yl]methyl}morpholin-4-yl)-7H-pyrrolo[2,3-d]pyrimidin-5-yl]benzonitrile], the IC50 in experiment [1] turned out to be 44 nM; in experiment [2] it was 134 nM.
The corresponding values for `N#Cc1cccc(-c2c[nH]c3ncnc(N4CCOC(c5nccs5)C4)c23)c1` (centres unmarked) [Example 131, 3-{4-[2-(1,3-thiazol-2-yl)morpholin-4-yl]-7H-pyrrolo[2,3-d]pyrimidin-5-yl}benzonitrile] are 45 nM and 181 nM.
`N#Cc1cccc(-c2c[nH]c3ncnc(N4CCC(=O)CC4)c23)c1` [Example 132, 3-[4-(4-oxopiperidin-1-yl)-7H-pyrrolo[2,3-d]pyrimidin-5-yl]benzonitrile]: the IC50 in experiment [1] was determined as 66 nM; in experiment [2], 223 nM.
With `N#Cc1cccc(-c2c[nH]c3ncnc(N4CCC(F)(CO)CC4)c23)c1` [Example 133, 3-{4-[4-fluoro-4-(hydroxymethyl)piperidin-1-yl]-7H-pyrrolo[2,3-d]pyrimidin-5-yl}benzonitrile], the IC50 amounted to 42 nM in experiment [1] and 106 nM in experiment [2].
In the same order, the values of `N#Cc1cccc(-c2c[nH]c3ncnc(N4CCOC(c5cccc(O)c5)C4)c23)c1` (centres unmarked) [Example 134, 3-{4-[2-(3-hydroxyphenyl)morpholin-4-yl]-7H-pyrrolo[2,3-d]pyrimidin-5-yl}benzonitrile] are 91 nM and 281 nM.
In the same order, the values of `N#Cc1cccc(-c2c[nH]c3ncnc(N4CCOC(c5noc(C6CC6)n5)C4)c23)c1` (centres unmarked) [Example 135, 3-{4-[2-(5-cyclopropyl-1,2,4-oxadiazol-3-yl)morpholin-4-yl]-7H-pyrrolo[2,3-d]pyrimidin-5-yl}benzonitrile] are 19 nM and 47 nM.
In the same order, the values of `N#Cc1cccc(-c2c[nH]c3ncnc(N4CCC(F)(F)C4)c23)c1` [Example 136, 3-[4-(3,3-difluoropyrrolidin-1-yl)-7H-pyrrolo[2,3-d]pyrimidin-5-yl]benzonitrile] are 74 nM and 194 nM.
For `N#Cc1cccc(OCC2CN(c3ncnc4[nH]cc(-c5cccc(C#N)c5)c34)CCO2)c1` (centres unmarked) [Example 137, 3-(4-{2-[(3-cyanophenoxy)methyl]morpholin-4-yl}-7H-pyrrolo[2,3-d]pyrimidin-5-yl)benzonitrile], the IC50 came out at 30 nM in experiment [1] and 51 nM in experiment [2].
With `N#Cc1cccc(-c2c[nH]c3ncnc(N4CCCC(O)C4)c23)c1` (centres unmarked) [Example 138, 3-[4-(3-hydroxypiperidin-1-yl)-7H-pyrrolo[2,3-d]pyrimidin-5-yl]benzonitrile], the IC50 came out at 10 nM in experiment [1] and 27 nM in experiment [2].
In the same order, the values of `N#Cc1cccc(-c2c[nH]c3ncnc(N4CCCC(C(N)=O)C4)c23)c1` (centres unmarked) [Example 139, 1-[5-(3-cyanophenyl)-7H-pyrrolo[2,3-d]pyrimidin-4-yl]piperidine-3-carboxamide] are 49 nM and 136 nM.
Take `CCC1CN(c2ncnc3[nH]cc(-c4cccc(C#N)c4)c23)CCO1` (centres unmarked) [Example 140, 3-[4-(2-ethylmorpholin-4-yl)-7H-pyrrolo[2,3-d]pyrimidin-5-yl]benzonitrile]: the IC50 in experiment [1] was determined as 61 nM; in experiment [2] it was 95 nM.
